The assay relates to sodium channel. Briefly: Guanidine influx assay (14C-guanidine radiotracer flux) in a known cell line that expresses a sodium channel. The assay is classed as cell-based, human or rat. The source says:
This example describes an in vitro assay for testing and profiling test agents against human or rat sodium channels stably expressed in cells of either an endogenous or recombinant origin.
The guanidine influx assay is a radiotracer flux assay used to determine ion flux activity of sodium channels in a high-throughput microplate-based format. The assay uses ^14C-guanidine hydrochloride in combination with various known sodium channel modulators, to assay the potency of test agents. Potency is determined by an IC50 calculation. Selectivity is determined by comparing potency of the compound for the channel of interest to its potency against other sodium channels (also called ‘selectivity profiling’).
Each of the test agents is assayed against cells that express the sodium channel of interest. Voltage gated sodium channels are either TTX sensitive or insensitive. This property is useful when evaluating the activities of a channel of interest when it resides in a mixed population with other sodium channels. The following Table 1 lists certain cell lines which are useful in screening for a certain sodium channel activity in the presence or absence of TTX.
It is also possible to employ recombinant cells expressing these sodium channels.
Cells expressing the channel of interest are grown according to the supplier or in the case of a recombinant cell in the presence of selective growth media such as G418 (Gibco/Invitrogen). The cells are disassociated from the culture dishes with an enzymatic solution (1×) Trypsin/EDTA (Gibco/Invitrogen) and analyzed for density and viability using haemocytometer (Neubauer). Disassociated cells are washed and resuspended in their culture media then plated into Scintiplates (Beckman Coulter Inc.) (approximately 100,000 cells/well) and incubated at 37° C./5% CO2 for 20-24 hours. After an extensive wash with Low sodium HEPES-buffered saline solution (LNHBSS) (150 mM Choline Chloride, […] (Sigma), 1 mM Calcium Chloride, 5 mM Potassium Chloride, 1 mM Magnesium Chloride, 10 mM Glucose) agents diluted with LNHBSS are added to each well. (Varying concentrations of test agent may be used). The activation/radiolabel mixture contains aconitine (Sigma), and ^14C-guanidine hydrochloride (ARC).
After loading the cells with test agent and activation/radiolabel mixture, the Scintiplates are incubated at ambient temperature. Following the incubation, the Scintplates are extensively washed with LNHBSS supplemented with guanidine (Sigma). The Scintiplates are dried and then counted using a Wallac MicroBeta TriLux (Perkin-Elmer Life Sciences). The ability of the test agent to block sodium channel activity is determined by comparing the amount of ^14C-guanidine present inside the cells expressing the different sodium channels.
IC50 value of a test agent for a specific sodium channel may be determined using the above general method. […] The IC50 curve is calculated using the 4 Parameter Logistic Model or Sigmoidal Dose-Response Model formula (fit=(A+((B−A)/(1+((C/x)^D)))).
The fold selectivity, factor of selectivity or multiple of selectivity, is calculated by dividing the IC50 value of the test sodium channel by the reference sodium channel, for example, Nav1.5.
The Example numbers provided in Table 2 correspond to the Example numbers herein: […]

As a reminder, the IC50 is the concentration at which inhibition is half-maximal. On to `CCCCCN1C(=O)C2(COc3cc4c(cc32)OCO4)c2c(Nc3ccc(OC)nc3)cccc21` (centres unmarked) [Example 5, 4′-[(6-methoxypyridin-3-yl)amino]-1′-pentylspiro[furo[2,3-f][1,3]benzodioxole-7,3′-indol]-2′(1′H)-one], for which the IC50 lay in the range of 100 to 1000 nM.

Take `O=C1N(Cc2ccc(F)cc2)c2ccccc2C12COc1cc3c(cc12)OCO3` (centres unmarked) [Example 10, 1′-(4-fluorobenzyl)spiro[furo[2,3-f][1,3]benzodioxole-7,3′-indol]-2′(1′H)-one]: the IC50 lay within 10 to 100 nM.

On to `O=C(NCCc1cccc(Cl)c1)c1cccc(CN2C(=O)C3(COc4cc5c(cc43)OCO5)c3ccccc32)c1` (centres unmarked) [Example 9, N-[2-(3-chlorophenyl)ethyl]-3-[(2′-oxospiro[furo[2,3-f][1,3]benzodioxole-7,3′-indol]-1′(2′H)-yl)methyl]benzamide], for which the IC50 was 100 to 1000 nM.

As for `CCCCCN1C(=O)C2(COc3ccccc32)c2ccccc21` (centres unmarked) [Example 32, 1′-pentylspiro[1-benzofuran-3,3′-indol]-2′(1′H)-one], the IC50 lay within 10 to 100 nM.

Consider `CCCCCN1C(=O)C2(COc3cc4c(cc32)OCO4)c2c(C(=O)Nc3ccccn3)cccc21` (centres unmarked) [Example 29, 2′-oxo-1′-pentyl-N-pyridin-2-yl-1′,2′-dihydrospiro[furo[2,3-f][1,3]benzodioxole-7,3′-indole]-4′-carboxamide], for which the IC50 was above 1000 nM.

`O=C(O)c1ccccc1CN1C(=O)C2(COc3cc4c(cc32)OCO4)c2ccccc21` (centres unmarked) [Example 6, 2-[(2′-oxospiro[furo[2,3-f][1,3]benzodioxole-7,3′-indol]-1′(2′H)-yl)methyl]benzoic acid]: the IC50 is above 1000 nM.

As to `CCCCCN1C(=O)C2(CC(OC)c3cc4c(cc32)OCO4)c2ccccc21` (centres unmarked) [Example 27, 7-methoxy-1′-pentyl-6,7-dihydrospiro[indeno[5,6-d][1,3]dioxole-5,3′-indol]-2′(1′H)-one], the IC50 is above 1000 nM.

Turning to `O=C1N(CCCO)c2ccccc2C12COc1cc3c(cc12)OCO3` (centres unmarked) [Example 13, 1′-(3-hydroxypropyl)spiro[furo[2,3-f][1,3]benzodioxole-7,3′-indol]-2′(1′H)-one], the IC50 was in the range of 10 to 100 nM.

Regarding `O=C(Nc1cccc(F)c1)c1ccc(CN2C(=O)C3(COc4cc5c(cc43)OCO5)c3ccccc32)cc1` (centres unmarked) [Example 12, N-(3-fluorophenyl)-4-[(2′-oxospiro[furo[2,3-f][1,3]benzodioxole-7,3′-indol]-1′(2′H)-yl)methyl]benzamide], the IC50 is 100 to 1000 nM.

Turning to `CCCCCN1C(=O)C2(COc3cc(S(C)(=O)=O)ccc32)c2ccccc21` (centres unmarked) [Example 39, 6-(methylsulfonyl)-1′-pentylspiro[1-benzofuran-3,3′-indol]-2′(1′H)-one], the IC50 is above 1000 nM.

On to `CCCCCN1C(=O)C2(COc3cc(N4CCOCC4)ccc32)c2ccccc21` (centres unmarked) [Example 34, 6-morpholin-4-yl-1′-pentylspiro[1-benzofuran-3,3′-indol]-2′(1′H)-one], for which the IC50 is above 1000 nM.

Take `O=C(NCCCN1C(=O)C2(COc3cc4c(cc32)OCO4)c2ccccc21)c1sccc1Cl` (centres unmarked) [Example 17, 3-chloro-N-[3-(2′-oxospiro[furo[2,3-f][1,3]benzodioxole-7,3′-indol]-1′(2′H)-yl)propyl]thiophene-2-carboxamide]: the IC50 was 10 to 100 nM.

Take `CCCCCN1C(=O)C2(CCCc3cc4c(cc32)OCO4)c2ccccc21` (centres unmarked) [Example 24, 1-pentyl-7′,8′-dihydro-6′H-spiro[indole-3,5′-naphtho[2,3-d][1,3]dioxol]-2(1H)-one]: the IC50 was 1 to 10 nM.

With `O=C(NCCN1C(=O)C2(COc3cc4c(cc32)OCO4)c2ccccc21)Nc1ccc(F)cc1` (centres unmarked) [Example 19, 1-(4-fluorophenyl)-3-[2-(2′-oxospiro[furo[2,3-f][1,3]benzodioxole-7,3′-indol]-1′(2′H)-yl)ethyl]urea], the IC50 is above 1000 nM.

On to `O=C(O)c1cccc(CN2C(=O)C3(COc4cc5c(cc43)OCO5)c3ccccc32)c1` (centres unmarked) [Example 8, 3-[(2′-oxospiro[furo[2,3-f][1,3]benzodioxole-7,3′-indol]-1′(2′H)-yl)methyl]benzoic acid], for which the IC50 was in the range of 100 to 1000 nM.

`CCCCCN1C(=O)C2(COc3cc(S(=O)(=O)c4ccccc4)ccc32)c2ccccc21` (centres unmarked) [Example 40, 1′-pentyl-6-(phenylsulfonyl)spiro[1-benzofuran-3,3′-indol]-2′(1′H)-one]: the IC50 lay within 100 to 1000 nM.

On to `CCCCCN1C(=O)C2(CCc3cc4c(cc32)OCO4)c2ccccc21` (centres unmarked) [Example 23, 1′-pentyl-6,7-dihydrospiro[indeno[5,6-d][1,3]dioxole-5,3′-indol]-2′(1′H)-one], for which the IC50 was in the range of 100 to 1000 nM.

In the case of `NCCN1C(=O)C2(COc3cc4c(cc32)OCO4)c2ccccc21` (centres unmarked) [Example 18, 1′-(2-aminoethyl)spiro[furo[2,3-f][1,3]benzodioxole-7,3′-indol]-2′(1′H)-one], the IC50 is above 1000 nM.

Take `O=C(NCCc1ccc(Cl)cc1)c1ccccc1CN1C(=O)C2(COc3cc4c(cc32)OCO4)c2ccccc21` (centres unmarked) [Example 7, N-[2-(4-chlorophenyl)ethyl]-2-[(2′-oxospiro[furo[2,3-f][1,3]benzodioxole-7,3′-indol]-1′(2′H)-yl)methyl]benzamide]: the IC50 was 100 to 1000 nM.

Consider `CCCCCN1C(=O)C2(COc3ccc(Oc4ccccc4)cc32)c2ccccc21` (centres unmarked) [Example 41, 1′-pentyl-5-phenoxyspiro[1-benzofuran-3,3′-indol]-2′(1′H)-one], for which the IC50 was above 1000 nM.

For the molecule `O=C(O)c1ccc(CN2C(=O)C3(COc4cc5c(cc43)OCO5)c3ccccc32)cc1` (centres unmarked) [Example 11, 4-[(2′-oxospiro[furo[2,3-f][1,3]benzodioxole-7,3′-indol]-1′(2′H)-yl)methyl]benzoic acid], the IC50 was above 1000 nM.

As to `CCCCCN1C(=O)C2(COc3ccc(C#N)cc32)c2ccccc21` (centres unmarked) [Example 51, 2′-oxo-1′-pentyl-1′,2′-dihydrospiro[1-benzofuran-3,3′-indole]-5-carbonitrile], the IC50 is 100 to 1000 nM.

Consider `NCCCN1C(=O)C2(COc3cc4c(cc32)OCO4)c2ccccc21` (centres unmarked) [Example 16, 1′-(3-aminopropyl)spiro[furo[2,3-f][1,3]benzodioxole-7,3′-indol]-2′(1′H)-one], for which the IC50 was above 1000 nM.

As to `CCCCCN1C(=O)C2(COc3cc(Oc4ccccc4)ccc32)c2ccccc21` (centres unmarked) [Example 36, 1′-pentyl-6-phenoxyspiro[1-benzofuran-3,3′-indol]-2′(1′H)-one], the IC50 was above 1000 nM.

Turning to `CCCCCN1C(=O)C2(CC(=O)c3cc4c(cc32)OCO4)c2ccccc21` (centres unmarked) [Example 21, 1′-pentylspiro[indeno[5,6-d][1,3]dioxole-5,3′-indole]-2′,7(1′H,6H)-dione], the IC50 fell in the range of 1 to 10 nM.

With `O=C(O)CN1C(=O)C2(COc3cc4c(cc32)OCO4)c2ccccc21` (centres unmarked) [Example 2, (2′-oxospiro[furo[2,3-f][1,3]benzodioxole-7,3′-indol]-1′(2′H)-yl)acetic acid], the IC50 was above 1000 nM.

Turning to `CCCCCN1C(=O)C2(CCC(=O)c3cc4c(cc32)OCO4)c2ccccc21` (centres unmarked) [Example 22, 1-pentyl-6′H-spiro[indole-3,5′-naphtho[2,3-d][1,3]dioxole]-2,8′(1′H,7′H)-dione], the IC50 is 1 to 10 nM.

As for `CCCCCN1C(=O)C2(COc3ccc(-c4ccncc4)cc32)c2ccccc21` (centres unmarked) [Example 50, 1′-pentyl-5-pyridin-4-ylspiro[1-benzofuran-3,3′-indol]-2′(1′H)-one], the IC50 lay within 100 to 1000 nM.

For the molecule `CCCCCN1C(=O)C2(COc3cc(Nc4ccccc4)ccc32)c2ccccc21` (centres unmarked) [Example 33, 6-anilino-1′-pentylspiro[1-benzofuran-3,3′-indol]-2′(1′H)-one], the IC50 is above 1000 nM.

On to `O=C1N(CCCNCC2CC2)c2ccccc2C12COc1cc3c(cc12)OCO3` (centres unmarked) [Example 15, 1′-{3-[(cyclopropylmethyl)amino]propyl}spiro[furo[2,3-f][1,3]benzodioxole-7,3′-indol]-2′(1′H)-one], for which the IC50 is above 1000 nM.

For the molecule `CCCCCN1C(=O)C2(COc3cc(-c4cccnc4)ccc32)c2ccccc21` (centres unmarked) [Example 37, 1′-pentyl-6-pyridin-3-ylspiro[1-benzofuran-3,3′-indol]-2′(1′H)-one], the IC50 was above 1000 nM.

In the case of `CCCCCN1C(=O)C2(CC(O)c3cc4c(cc32)OCO4)c2ccccc21` (centres unmarked) [Example 26, 7-hydroxy-1′-pentyl-6,7-dihydrospiro[indeno[5,6-d][1,3]dioxole-5,3′-indol]-2′(1′H)-one], the IC50 was above 1000 nM.
